From patent US20020137929A1, “1 - (3-heterocyclylphenyl) isothiourea, -isourea, -guanidine and -amidine herbicidal agents” (Intellectual Property Department, BASF Aktiengesellschaft, priority 1998, published 2002)

Key:
[1] = system: SAGPY (Arrowhead (Pygmaea)); assay: Preemergence weed control under flooded paddy conditions; format: in vivo, Sagittaria pygmaea; conditions: rated 3-4 weeks after treatment
Summary of the method: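 Herbicidal effect is scored visually on a 0-9 scale against an untreated control, three to four weeks after compounds are pipetted into the flood water (1.5 to 3 cm deep) over seeds planted in silt loam at 0.5 cm depth. Rates: about 0.0313 to 0.500 kg/ha.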

[2] = system: TRZAWR (Wheat, Winter, cv Riband); assay: Preemergence herbicidal evaluation; format: in vivo, Triticum aestivum; conditions: rated 4-5 weeks after treatment; for TRZAWR rating: preemergence, 0-9 scale
Summary of the method: (§1)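 Scores (0–9) reflect visual comparison with control plants for stand, vigor, malformation, size and chlorosis. Compound was applied to the soil after sowing, before emergence, as an aqueous acetone spray (about 0.0156–0.500 kg/ha), and cups were kept in a greenhouse for 4–5 weeks.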

[3] = system: ORYSAT (Rice, Tebonnet); assay: Preemergence herbicidal evaluation; format: in vivo, Oryza sativa, (L.) Tebonnet; conditions: rated 4-5 weeks after treatment; for ORYSAT rating: preemergence, 0-9 scale
Summary of the method: as §1

[4] = system: CASOB (Sicklepod); assay: Postemergence herbicidal evaluation; format: in vivo, Cassia obtusifolia; conditions: for herbicidal rating CASOB / CASOB herbicidal rating: postemergence
Summary of the method: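 Visual 0–9 rating versus control (stand, vigor, malformation, size, chlorosis, overall appearance), taken four to five weeks post-spray. Two-week-old seedlings received roughly 0.0156–0.500 kg/ha active in acetone/water (50/50) with 0.5% TWEEN 20 via nozzle at 40 psi.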

[5] = system: GLXMAW (Soybean, Williams); assay: Preemergence herbicidal evaluation; format: in vivo, Glycine max, (L.) Merr. cv Williams; conditions: rated 4-5 weeks after treatment; for GLXMAW rating: preemergence, 0-9 scale
Summary of the method: as §1

[6] = system: MOOVA (Monochoria); assay: Postemergence weed control under flooded paddy conditions; format: in vivo, Monochoria vaginalis; conditions: postemergence weeds
Summary of the method: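 With weeds 3 to 5 cm tall and rice at the 1.5 to 2.5 leaf stage, containers were flooded and water held 1.5 to 3 cm above soil. Compounds in 50/50 v/v aqueous/acetone went into the flood water at about 0.0313 to 0.500 kg/ha a.i. Effects were visually rated 0–9 against controls after three to four weeks in the greenhouse.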

[7] = Rate 0.0313 kg/ha, rated 3 to 4 weeks after treatment
[8] = Rate 0.0625 kg/ha, rated 3 to 4 weeks after treatment
[9] = Rate 0.1250 kg/ha, rated 3 to 4 weeks after treatment
[10] = Rate 0.2500 kg/ha, rated 3 to 4 weeks after treatment

CCS(=O)(=O)NC(=O)CC1SC(=Nc2cc(-n3c(=O)cc(C(F)(F)F)n(C)c3=O)c(F)cc2Cl)N(C)C1=O (stereo not drawn) [Compound 105, 2-{{2-Chloro-5-[3,6-dihydro-3-methyl-2,6-dioxo-4-(trifluoromethyl)-1(2H)-pyrimidinyl]-4-fluorophenyl}imino}-N-(ethylsulfonyl)-3-methyl-4-oxo-5-thiazolidineacetamide]
SAGPY herbicidal effect rating ([1]; 0.0313 kg/ha): 3.0
SAGPY herbicidal effect rating ([1]; 0.0625 kg/ha): 5.0
SAGPY herbicidal effect rating ([1]; 0.1250 kg/ha): 5.0
SAGPY herbicidal effect rating ([1]; 0.2500 kg/ha): 7.0
TRZAWR rating ([2]; 0.1250 kg/ha): 0.0
TRZAWR rating ([2]; 0.2500 kg/ha): 0.0
TRZAWR rating ([2]; 0.5000 kg/ha): 0.0
ORYSAT rating ([3]; 0.1250 kg/ha): 0.0
ORYSAT rating ([3]; 0.2500 kg/ha): 0.0
ORYSAT rating ([3]; 0.5000 kg/ha): 0.0
herbicidal rating CASOB ([4]; rate 0.0156 kg/ha): 0.0
herbicidal rating CASOB ([4]; rate 0.0313 kg/ha): 0.0
herbicidal rating CASOB ([4]; rate 0.0625 kg/ha): 0.0
herbicidal rating CASOB ([4]; rate 0.1250 kg/ha): 1.0
GLXMAW rating ([5]; 0.1250 kg/ha): 0.0
GLXMAW rating ([5]; 0.2500 kg/ha): 0.0
GLXMAW rating ([5]; 0.5000 kg/ha): 0.0
Herbicidal rating MOOVA [6, 7]: 6.0
Herbicidal rating MOOVA [6, 8]: 7.0
Herbicidal rating MOOVA [6, 9]: 7.0
Herbicidal rating MOOVA [6, 10]: 9.0

C=CCN1C(=O)C(CC(=O)OC(C)C)SC1=Nc1cc(-n2c(=O)cc(C(F)(F)F)n(C)c2=O)c(F)cc1Cl (stereo not drawn) [Compound 66, Isopropyl 3-allyl-2-{{2-chloro-5-[3,6-dihydro-3-methyl-2,6-dioxo-4-(trifluoromethyl)-1(2H)-pyrimidinyl]-4-fluorophenyl}imino}-4-oxo-5-thiazolidineacetate]
SAGPY herbicidal effect rating ([1]; 0.0313 kg/ha): 3.0
SAGPY herbicidal effect rating ([1]; 0.0625 kg/ha): 4.0
SAGPY herbicidal effect rating ([1]; 0.1250 kg/ha): 4.0
SAGPY herbicidal effect rating ([1]; 0.2500 kg/ha): 4.0
Preemergence herbicidal rating TRZAWR ([2]; rate 0.0156 kg/ha): 0.0
Preemergence herbicidal rating TRZAWR ([2]; rate 0.0313 kg/ha): 0.0
Preemergence herbicidal rating TRZAWR ([2]; rate 0.0625 kg/ha): 0.5
Preemergence herbicidal rating TRZAWR ([2]; rate 0.1250 kg/ha): 0.5
Preemergence herbicidal rating TRZAWR ([2]; rate 0.2500 kg/ha): 1.0
Preemergence herbicidal rating TRZAWR ([2]; rate 0.5000 kg/ha): 4.0
Preemergence herbicidal rating ORYSAT ([3]; rate 0.0156 kg/ha): 0.0
Preemergence herbicidal rating ORYSAT ([3]; rate 0.0313 kg/ha): 0.0
Preemergence herbicidal rating ORYSAT ([3]; rate 0.0625 kg/ha): 0.5
Preemergence herbicidal rating ORYSAT ([3]; rate 0.1250 kg/ha): 0.5
Preemergence herbicidal rating ORYSAT ([3]; rate 0.2500 kg/ha): 2.5
Preemergence herbicidal rating ORYSAT ([3]; rate 0.5000 kg/ha): 8.0
CASOB herbicidal rating ([4]; rate 0.0158 kg/ha): 0.0
CASOB herbicidal rating ([4]; rate 0.0313 kg/ha): 0.0
CASOB herbicidal rating ([4]; rate 0.0625 kg/ha): 3.0
CASOB herbicidal rating ([4]; rate 0.1250 kg/ha): 6.0
Preemergence herbicidal rating GLXMAW ([5]; rate 0.0156 kg/ha): 0.0
Preemergence herbicidal rating GLXMAW ([5]; rate 0.0313 kg/ha): 0.0
Preemergence herbicidal rating GLXMAW ([5]; rate 0.0625 kg/ha): 0.5
Preemergence herbicidal rating GLXMAW ([5]; rate 0.1250 kg/ha): 0.5
Preemergence herbicidal rating GLXMAW ([5]; rate 0.2500 kg/ha): 4.5
Preemergence herbicidal rating GLXMAW ([5]; rate 0.5000 kg/ha): 9.0
Herbicidal rating MOOVA [6, 7]: 9.0
Herbicidal rating MOOVA [6, 8]: 9.0
Herbicidal rating MOOVA [6, 9]: 9.0
Herbicidal rating MOOVA [6, 10]: 9.0

CCOC(=O)CN1C(=O)C(CC(=O)NS(=O)(=O)c2ccccc2)SC1=Nc1cc(-n2c(=O)cc(C(F)(F)F)n(C)c2=O)c(F)cc1Cl (stereo not drawn) [Compound 100, Ethyl 2-{{2-chloro-5-[3,6-dihydro-3-methyl-2,6-dioxo-4-(trifluoromethyl)-1(2H)-pyrimidinyl]-4-fluorophenyl}imino}-4-oxo-5-{[(phenylsulfonyl)-carbamoyl]methyl]-3-thiazolidineacetate]
SAGPY herbicidal effect rating ([1]; 0.0313 kg/ha): 0.0
SAGPY herbicidal effect rating ([1]; 0.0625 kg/ha): 0.0
SAGPY herbicidal effect rating ([1]; 0.1250 kg/ha): 0.0
SAGPY herbicidal effect rating ([1]; 0.2500 kg/ha): 4.0
SAGPY herbicidal effect rating ([1]; 0.5000 kg/ha): 6.0
TRZAWR rating ([2]; 0.0313 kg/ha): 0.0
TRZAWR rating ([2]; 0.0625 kg/ha): 0.0
TRZAWR rating ([2]; 0.1250 kg/ha): 1.0
TRZAWR rating ([2]; 0.2500 kg/ha): 0.0
TRZAWR rating ([2]; 0.5000 kg/ha): 1.0
ORYSAT rating ([3]; 0.0313 kg/ha): 0.0
ORYSAT rating ([3]; 0.0625 kg/ha): 0.0
ORYSAT rating ([3]; 0.1250 kg/ha): 0.0
ORYSAT rating ([3]; 0.2500 kg/ha): 0.0
ORYSAT rating ([3]; 0.5000 kg/ha): 1.0
herbicidal rating CASOB ([4]; rate 0.0156 kg/ha): 2.0
herbicidal rating CASOB ([4]; rate 0.0313 kg/ha): 7.0
herbicidal rating CASOB ([4]; rate 0.0625 kg/ha): 6.0
herbicidal rating CASOB ([4]; rate 0.1250 kg/ha): 9.0
GLXMAW rating ([5]; 0.0313 kg/ha): 0.0
GLXMAW rating ([5]; 0.0625 kg/ha): 1.0
GLXMAW rating ([5]; 0.1250 kg/ha): 1.0
GLXMAW rating ([5]; 0.2500 kg/ha): 0.0
GLXMAW rating ([5]; 0.5000 kg/ha): 2.0
Herbicidal rating MOOVA [6, 7]: 9.0
Herbicidal rating MOOVA [6, 8]: 9.0
Herbicidal rating MOOVA [6, 9]: 9.0
Herbicidal rating MOOVA [6, 10]: 9.0
Herbicidal rating MOOVA ([6]; Rate 0.5000 kg/ha, rated 3 to 4 weeks after treatment): 9.0

C=CCN1C(=O)C(CC(=O)O)SC1=Nc1cc(-n2c(=O)cc(C(F)(F)F)n(C)c2=O)c(F)cc1Cl (stereo not drawn) [Compound 62, 3-Allyl-2-{{2-chloro-5-[3,6-dihydro-3-methyl-2,6-dioxo-4-(trifluoromethyl)-1(2H)-pyrimidinyl]-4-fluorophenyl}imino}-4-oxo-5-thiazolidineacetic acid]
SAGPY herbicidal effect rating ([1]; 0.0313 kg/ha): 0.0
SAGPY herbicidal effect rating ([1]; 0.0625 kg/ha): 0.0
SAGPY herbicidal effect rating ([1]; 0.1250 kg/ha): 3.0
SAGPY herbicidal effect rating ([1]; 0.2500 kg/ha): 6.0
Preemergence herbicidal rating TRZAWR ([2]; rate 0.0156 kg/ha): 0.0
Preemergence herbicidal rating TRZAWR ([2]; rate 0.0625 kg/ha): 1.0
Preemergence herbicidal rating TRZAWR ([2]; rate 0.1250 kg/ha): 1.0
Preemergence herbicidal rating TRZAWR ([2]; rate 0.2500 kg/ha): 2.0
Preemergence herbicidal rating ORYSAT ([3]; rate 0.0156 kg/ha): 0.0
Preemergence herbicidal rating ORYSAT ([3]; rate 0.0313 kg/ha): 0.0
Preemergence herbicidal rating ORYSAT ([3]; rate 0.0625 kg/ha): 1.0
Preemergence herbicidal rating ORYSAT ([3]; rate 0.1250 kg/ha): 4.0
Preemergence herbicidal rating ORYSAT ([3]; rate 0.2500 kg/ha): 6.0
Postemergence herbicidal rating CASOB ([4]; Rate 0.0158 kg/ha): 1.0
Postemergence herbicidal rating CASOB ([4]; Rate 0.0315 kg/ha): 2.0
Postemergence herbicidal rating CASOB ([4]; Rate 0.0630 kg/ha): 6.0
Preemergence herbicidal rating GLXMAW ([5]; rate 0.0156 kg/ha): 0.0
Preemergence herbicidal rating GLXMAW ([5]; rate 0.0313 kg/ha): 0.0
Preemergence herbicidal rating GLXMAW ([5]; rate 0.0625 kg/ha): 1.0
Preemergence herbicidal rating GLXMAW ([5]; rate 0.1250 kg/ha): 2.0
Preemergence herbicidal rating GLXMAW ([5]; rate 0.2500 kg/ha): 7.0
Herbicidal rating MOOVA [6, 7]: 4.0
Herbicidal rating MOOVA [6, 8]: 9.0
Herbicidal rating MOOVA [6, 9]: 9.0
Herbicidal rating MOOVA [6, 10]: 9.0

CCOC(=O)CN1C(=O)C(F)SC1=Nc1cc(-n2c(=O)cc(C(F)(F)F)n(C)c2=O)c(F)cc1Cl (stereo not drawn) [Compound 11, Ethyl 2-{{2-chloro-5-[3,6-dihydro-3-methyl-2,6-dioxo-4-(trifluoromethyl)-1(2H)-pyrimidinyl]-4-fluorophenyl}imino}-5-fluoro-4-oxo-3-thiazolidineacetate]
Herbicidal rating SAGPY ([1]; 0.0313 kg/ha): 0.0
Herbicidal rating SAGPY ([1]; 0.0625 kg/ha): 0.0
Herbicidal rating SAGPY ([1]; 0.1250 kg/ha): 0.0
Herbicidal rating SAGPY ([1]; 0.2500 kg/ha): 0.0
TRZAWR preemergence herbicidal rating ([2]; rate 0.0156 kg/ha): 0.0
TRZAWR preemergence herbicidal rating ([2]; rate 0.0313 kg/ha): 0.0
TRZAWR preemergence herbicidal rating ([2]; rate 0.0625 kg/ha): 0.0
TRZAWR preemergence herbicidal rating ([2]; rate 0.1250 kg/ha): 2.0
TRZAWR preemergence herbicidal rating ([2]; rate 0.2500 kg/ha): 5.0
ORYSAT preemergence herbicidal rating ([3]; rate 0.0156 kg/ha): 0.0
ORYSAT preemergence herbicidal rating ([3]; rate 0.0313 kg/ha): 0.0
ORYSAT preemergence herbicidal rating ([3]; rate 0.0625 kg/ha): 0.0
ORYSAT preemergence herbicidal rating ([3]; rate 0.1250 kg/ha): 2.0
ORYSAT preemergence herbicidal rating ([3]; rate 0.2500 kg/ha): 4.0
CASOB herbicidal rating ([4]; rate 0.0156 kg/ha): 0.0
CASOB herbicidal rating ([4]; rate 0.0313 kg/ha): 0.0
CASOB herbicidal rating ([4]; rate 0.0625 kg/ha): 0.0
CASOB herbicidal rating ([4]; rate 0.1250 kg/ha): 3.0
GLXMAW preemergence herbicidal rating ([5]; rate 0.0156 kg/ha): 1.5
GLXMAW preemergence herbicidal rating ([5]; rate 0.0313 kg/ha): 1.5
GLXMAW preemergence herbicidal rating ([5]; rate 0.0625 kg/ha): 3.5
GLXMAW preemergence herbicidal rating ([5]; rate 0.1250 kg/ha): 6.0
GLXMAW preemergence herbicidal rating ([5]; rate 0.2500 kg/ha): 8.0
Herbicidal rating MOOVA ([6]; rate 0.0313 kg/ha, 3-4 weeks after treatment): 0.0
Herbicidal rating MOOVA ([6]; rate 0.0625 kg/ha, 3-4 weeks after treatment): 1.0
Herbicidal rating MOOVA ([6]; rate 0.1250 kg/ha, 3-4 weeks after treatment): 4.0
Herbicidal rating MOOVA ([6]; rate 0.2500 kg/ha, 3-4 weeks after treatment): 7.0
